This is an account of results in patent US20250281625A1, “FOLIC ACID-CONJUGATED AMINOCLAY BASED NANOCOMPOSITES FOR THE SITE-SPECIFIC DRUG DELIVERY, METHOD FOR THEIR PREPARATION AND THEIR USE” (Dongguk University Industry-Academic Cooperation Foundation, priority 2021, published 2025).

The conditions of series [1]: in water; cited from earlier work.
Series [2] deals with colitis-induced mice. Nature of the series: in vivo efficacy in dextran sodium sulfate colitis-induced mice. Further details: species or system C57BL/6 mice. The settings on record: oral, 10 mg/kg once daily for 8 days, DSS colitis mice, day 9. The procedure:
(§1) Before inducing colitis, 8-week-old C57BL/6 mice were raised under standard conditions at 21° C. to 22° C. in a 12-hour light/dark cycle for 7 days. On the day of the experiment (Day 0), mice were randomly divided into five groups: a healthy control group and four experimental groups [dextran sodium sulfate administration group (DSS), dextran sodium sulfate and phosphate-buffer saline (PBS) administration group (DSS+PBS), dextran sodium sulfate and infliximab administration group (DSS+IFX), and dextran sodium sulfate and EFA-AC-IFX administration group (DSS+EFA-AC-IFX)]. Colitis was induced in mice by adding 2.0% (w/v) dextran sodium sulfate to drinking water.
To investigate the therapeutic effect of nanoparticles, colitis-induced mice in each experimental group were orally administered with 200 μL of PBS, infliximab (10 mg/kg), or EFA-AC-IFX (10 mg/kg) once daily for 8 days. On Day 8, drinking water containing dextran sodium sulfate was replaced with pure water. […]
To evaluate the therapeutic efficacy of EFA-AC-IFX for colitis, mouse colon tissues were histologically analyzed using hematoxylin-eosin (H&E) staining. […] The severity of colitis in each colonic section was assessed using a blinded approach by measuring mucosal features, such as epithelial damage, mucosal edema, and inflammatory cell infiltration of the mucosa.

The subject of series [3] is TNF-α. The series can be described thus: TNF-α concentration in colonic samples of colitis-induced mice (ELISA). Format: in vivo, C57BL/6 mice. The settings on record: oral, 10 mg/kg once daily for 8 days, DSS colitis mice, compared to control group. The method, then:
as §1
To investigate the therapeutic effect of nanoparticles, colitis-induced mice in each experimental group were orally administered with 200 μL of PBS, infliximab (10 mg/kg), or EFA-AC-IFX (10 mg/kg) once daily for 8 days. On Day 8, drinking water containing dextran sodium sulfate was replaced with pure water. During the experiment, changes in body weight, stool consistency, and the presence of blood in the stool or anus were checked daily. […]
The level of TNF-α, one of the important inflammatory mediators involved in the pathogenesis of ulcerative colitis, is increased by inducing colitis in mice. Therefore, the concentration of TNF-α in colonic samples obtained from each experimental group was quantified using a TNF-α ELISA kit.
A general note: ELISA stands for enzyme-linked immunosorbent assay.

With `Nc1nc2ncc(CNc3ccc(C(=O)N[C@@H](CCC(=O)O)C(=O)O)cc3)nc2c(=O)[nH]1` [folic acid], the water solubility in series [1] is on record as 0.0016 mg/g. Infliximab showed a colon length in series [2] of 6.2±0.25 cm. Further, in series [3], the “concentration of TNF-α in colonic samples” value is “significantly increased compared to the control group”.
